Columns and labels:
MMP-9 = molecular target: T1, MMP-9 (Homo sapiens, UniProt P14780); assay type: biochemical; conditions: 6 µM P218 substrate, approximately 0.5 to 0.8 nM MMP, 25 min. at 37°C, pH 6.5
T1 construct: made in house
Description: (§1) The P218 quenched fluorescence assay (Microfluorometric Profiling Assay) is a modification of that originally described by Knight, et al., FEBS Lett. 296, 263, 1992 for a related substance and a variety of matrix metalloproteinases (MMPs) in cuvettes. The assay was run with each invention compound and the three MMPs. MMP-3, MMP-9 and MMP-2, analyzed in parallel. adapted as follows for a 96-well microtiter plate and a Hamilton AT® workstation.
(§2) P218 Fluorogenic Substrate: P218 is a synthetic substrate containing a 4-acetyl-7-methoxycoumarin ( MCA) group in the N-terminal position and a 3-[2,4-dinitrophenyl]-L-2,3-diaminopropionyl (DPA) group internally. This is a modification of a peptide reported by Knight (1992) that was used as a substrate for matrix metalloptoteinases. Once the P218 peptide is cleaved (putative clip site at the Ala-Leu bond), the fluorescence of the MCA group can be detected on a fluorometer with excitation at 328 nm and emission at 393 nm. P218 is currently being produced by BACHEM Bioscience, Inc.exclusively for the Bayer Corporation. P218 has the structure: [formula]
Recombinant Human Pro-MMP-9: Human pro-gelatinase B (pro-MMP-9) derived from U937 cDNA as described by Wilhelm, et al. J. Biol. Chem. 264, 17213, 1989 was expressed as the full-length form using a baculovirus protein expression system. The pro-enzyme was purified using methods previously described by Hibbs, et al. J. Biol. Chem. 260, 2493, 1984.
Activation of Pro-MMP-9: […] 20 µg/mL in 50 mM Tris at pH 7.4, 10mM […], 150 mM NaCl, and 0.005% Brij-35 (MMP-9 activation buffer) was activated by incubation with 0 5 mM p-aminophenylmercuric acetate (APMA) for 3.5 h at 37 °C. The enzyme was dialyzed against the same buffer to remove the APMA.
(§3) Hamiltion Microlab AT Plus: The MMP-Profiling Assay was performed robotically on a Hamilton MicroLab AT Plus®. The Hamilton was programmed to: (1) serially dilute up to 11 potential inhibitors automatically from a 2.5 mM stock in 100% DMSO; (2) distribute substrate followed by inhibitor into a 96 well Cytofluor plate; and (3) add a single enzyme to the plate with mixing to start the reaction. Subsequent plates for each additional enzyme were prepared automatically by beginning the program at the substrate addition point, remixing the diluted inhibitors and beginning the reaction by addition of enzyme. In this way, all MMP assays were done using the same inhibitor dilutions.
(§4) Millipore Cytofluor II. Following incubation, the plate was read on a Cytofluor II fluoromeiric plate reader with excitation at 340 nm and emission at 395 nm with the gain set at 80.
(§5) Microfluorometric Reaction Buffer (MRB): Dilution of test compounds, enzymes, and P218 substrate for the microfluorometric assay were made in microfluorometric reaction buffer consisting of 50 mM 2-(N-morpholino)ethanesulfonic acid (MES) at pH 6.5 with 10 mM CaCl2, 150 mM NaCl. 0.005% Brij-35 and 1% DMSO.
(§6) MMP Microfluorometric Profiling Assay. The assay was done with a final substrate concentration of 6 µM P218 and approximately 0.5 to 0.8 nM MMP with variable drug concentrations. The Hamilton was programmed to serially dilute up to 11 compounds from a 2.5 mM stock (100% DMSO) to 10x the final compounds concentrations in the assay. Initially, the instrument delivered various amounts of microfluorometric reaction buffer (MRB) to a 96 tube rack of 1 mL Marsh dilution tubes. The instrument then picked up 20 µL of inhibitor (2.5 mM) from the sample rack and mixes it with a buffer in row A of the Marsh rack, resulting in a 50 µM drug concentration. The inhibitors were then serially diluted to 10, 5, 1, .2, 0.05 and 0.01 µM. […] The instrument re-mixed and loads 14.5 µL of diluted compound from rows A to G in the Marsh rack to corresponding rows in the microtiter plate. (Row H represents the "background" row and 39.5 µL of MRB was delivered in placed of drug or enzyme). […]

MMP-2 = molecular target: T2, MMP-2 (Homo sapiens, UniProt P08253); experiment: biochemical
T2 sequence (P08253 110-660): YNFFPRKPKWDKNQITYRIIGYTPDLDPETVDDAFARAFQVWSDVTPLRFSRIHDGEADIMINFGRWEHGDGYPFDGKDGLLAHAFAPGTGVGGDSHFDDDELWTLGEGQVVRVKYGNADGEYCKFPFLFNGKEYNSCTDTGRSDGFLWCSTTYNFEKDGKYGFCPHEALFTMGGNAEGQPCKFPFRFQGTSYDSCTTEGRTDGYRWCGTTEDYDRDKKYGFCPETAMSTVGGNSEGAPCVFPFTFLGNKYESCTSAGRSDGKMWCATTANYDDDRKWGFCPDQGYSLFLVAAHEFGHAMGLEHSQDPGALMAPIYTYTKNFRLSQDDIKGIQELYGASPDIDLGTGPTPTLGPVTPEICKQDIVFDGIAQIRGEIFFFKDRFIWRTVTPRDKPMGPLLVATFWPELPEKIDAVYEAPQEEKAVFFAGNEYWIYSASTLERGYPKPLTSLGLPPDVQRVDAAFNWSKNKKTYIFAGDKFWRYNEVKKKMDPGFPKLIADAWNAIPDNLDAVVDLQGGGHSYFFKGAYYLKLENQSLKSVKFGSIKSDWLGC

MMP-3 = molecular target: T3, MMP-3 (Homo sapiens, UniProt P08254); assay type: biochemical; conditions: 6 µM P218 substrate, approximately 0.5 to 0.8 nM MMP, 25 min. at 37°C, pH 6.5
T3 construct: made in house; host or cells: CHO cells
Description: as §1, §2
Recombinant Human CHO Pro-MMP-3: Human CHO pro-stromelysin-257 (pro-MMP-3) was expressed and purified as described by Housley, et al., J. Biol. Chem. 268, 4481, 1993.
Activation of Pro-MMP-3: Pro-MMP-3 at 1.72 µM (100 µg/mL) in 5 mM Tris at pH 7.5, 5 mM CaCl2, 25 mM NaCl, and 0.005% Brij-35 (MMP-3 activation buffer) was activated by incubation with TPCK (N-tosyl-(L)-phenylalanine chioromethyl ketone) trypsin (1:100 w/w to pro-MMP-3) at 25 °C for 30 min. The reaction was stopped by addition of soybean trypsin inhibitor (SBTI; 5:1 w/w to trypsin concentration). This activation protocol results in the formation of 45 kDa active MMP-3, which still contains the C-tenninal portion of the enzyme.
as §3, §4, §5, §6

T1 sequence (P14780 107-707 limits assumed): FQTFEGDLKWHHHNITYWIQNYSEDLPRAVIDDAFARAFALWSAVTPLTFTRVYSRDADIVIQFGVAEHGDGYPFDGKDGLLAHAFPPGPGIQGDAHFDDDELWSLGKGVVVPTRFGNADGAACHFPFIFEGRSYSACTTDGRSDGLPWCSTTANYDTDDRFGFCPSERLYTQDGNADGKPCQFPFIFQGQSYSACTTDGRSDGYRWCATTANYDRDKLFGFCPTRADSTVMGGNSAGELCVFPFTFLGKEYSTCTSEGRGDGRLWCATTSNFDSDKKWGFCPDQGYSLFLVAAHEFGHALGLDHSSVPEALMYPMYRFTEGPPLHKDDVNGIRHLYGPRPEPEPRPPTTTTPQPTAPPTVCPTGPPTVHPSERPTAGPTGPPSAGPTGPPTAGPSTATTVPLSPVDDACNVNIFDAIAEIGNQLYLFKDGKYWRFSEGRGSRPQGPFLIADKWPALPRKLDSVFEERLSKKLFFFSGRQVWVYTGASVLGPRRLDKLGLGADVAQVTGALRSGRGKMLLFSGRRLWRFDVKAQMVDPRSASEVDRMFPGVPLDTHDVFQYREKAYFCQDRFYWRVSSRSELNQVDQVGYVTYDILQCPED
T3 sequence (P08254 100-477): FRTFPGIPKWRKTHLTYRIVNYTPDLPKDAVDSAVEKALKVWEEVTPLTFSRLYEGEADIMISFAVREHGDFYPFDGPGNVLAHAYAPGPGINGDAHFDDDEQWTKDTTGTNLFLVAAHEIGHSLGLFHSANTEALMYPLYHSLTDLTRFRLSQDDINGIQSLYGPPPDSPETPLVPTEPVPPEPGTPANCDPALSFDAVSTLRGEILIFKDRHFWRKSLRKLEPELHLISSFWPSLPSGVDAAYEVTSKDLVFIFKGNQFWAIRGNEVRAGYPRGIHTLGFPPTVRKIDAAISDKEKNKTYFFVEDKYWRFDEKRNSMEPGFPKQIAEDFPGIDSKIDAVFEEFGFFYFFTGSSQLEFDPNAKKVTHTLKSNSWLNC

Row | Compound | IC50 (MMP-9) [nM] | IC50 (MMP-2) [nM] | IC50 (MMP-3) [nM]
1 | COc1ccc(C(=O)CCCC(CC(=O)c2ccc(-c3ccc(Cl)cc3)cc2)C(=O)O)cc1 (stereo not drawn) [Compound X, 4'-chloro-α-[4-(4-methoxyphenyl)-4-oxobutyl]-γ-oxo-[1,1'-biphenyl]-4-butanoic acid] | 145 | 25.1 | 122
2 | CC(C)c1ccc(C(=O)CCCC(CC(=O)c2ccc(-c3ccc(Cl)cc3)cc2)C(=O)O)cc1 (stereo not drawn) [Compound XV, 4'-chloro-α-[4-[4-(1-methylethyl)phenyl]-4-oxobutyl]-γ-oxo-[1,1'-biphenyl]-4-butanoic acid] | 133 | 35.7 | 130
3 | COc1ccccc1C(=O)CCCC(CC(=O)c1ccc(-c2ccc(Cl)cc2)cc1)C(=O)O (stereo not drawn) [Compound XVI, 4'-chloro-α-[4-(2-methoxyphenyl)-4-oxobutyl]-γ-oxo-[1,1'-biphenyl]-4-butanoic acid] | 152 | 26.2 | 48.2
4 | O=C(CCCC(CC(=O)c1ccc(-c2ccc(Cl)cc2)cc1)C(=O)O)c1ccccc1 (stereo not drawn) [I, 4'-chloro-y-oxo-α-(4-oxo-4-phenylbutyl)-[1,1'-biphenyl]-4-butanoic acid] | 65.7 | 9.97 | 65
5 | O=C(CCC(CC(=O)c1ccc(-c2ccc(Cl)cc2)cc1)C(=O)O)c1ccccc1 (stereo not drawn) [II, 4'-chloro-y-oxo-α-(3-oxo-3-phenylpropyl)-[1,1'-biphenyl]-4-butanoic acid] | 127 | 9.6 | 96
6 | O=C(CCCCC(CC(=O)c1ccc(-c2ccc(Cl)cc2)cc1)C(=O)O)c1ccccc1 (stereo not drawn) [III, 4'-chloro-γ-oxo-α-(5-oxo-5-phenylpentyl)-[1,1'-biphenyl]-4-butanoic acid] | 52.4 | 7.52 | 61.1
7 | O=C(CCCCCC(CC(=O)c1ccc(-c2ccc(Cl)cc2)cc1)C(=O)O)c1ccccc1 (stereo not drawn) [IV, 4'-chloro-γ-oxo-α-(6-oxo-6-phenylhexyl)-[1,1'-biphenyl]-4-butanoic acid] | 175 | 34.1 | 109
8 | O=C(CCCC(CC(=O)c1ccc(-c2ccc(Cl)cc2)cc1)C(=O)O)c1ccc(Br)cc1 (stereo not drawn) [IX] | 131 | 28.3 | 125
9 | Cc1ccc(C(=O)CCCC(CC(=O)c2ccc(-c3ccc(Cl)cc3)cc2)C(=O)O)cc1 (stereo not drawn) [VIII, 4'-chloro-α-[4-(4-methylphenyl)-4-oxobutyl]-γ-oxo-[1,1'-biphenyl]-4-butanoic acid] | 108 | 19 | 69.1
10 | O=C(CCCC(CC(=O)c1ccc(-c2ccc(Cl)cc2)cc1)C(=O)O)c1ccc(Oc2ccccc2)cc1 (stereo not drawn) [VII] | 65.7 | 131 | 367
11 | Cc1cc(C)c(C(=O)CCCC(CC(=O)c2ccc(-c3ccc(Cl)cc3)cc2)C(=O)O)c(C)c1 (stereo not drawn) [VI] | 1310 | 30.8 | 39.6
12 | COc1cc(OC)c(C(=O)CCCC(CC(=O)c2ccc(-c3ccc(Cl)cc3)cc2)C(=O)O)c(OC)c1 (stereo not drawn) [V] | 132 | 8.13 | 71.7
13 | COc1ccc(C(=O)CCCC(CC(=O)c2ccc(-c3ccc(Cl)cc3)cc2)C(=O)O)c(OC)c1 (stereo not drawn) [XII, 4'-chloro-α-[4-(2,4-dimethoxyphenyl)-4-oxobutyl]-γ-oxo-[1,1'-biphenyl]-4-butanoic acid] | 225 | 25.1 | 115
14 | CC(C)(C)c1ccc(C(=O)CCCC(CC(=O)c2ccc(-c3ccc(Cl)cc3)cc2)C(=O)O)cc1 (stereo not drawn) [XIII] | 167 | 71.6 | 222
15 | CCc1ccc(C(=O)CCCC(CC(=O)c2ccc(-c3ccc(Cl)cc3)cc2)C(=O)O)cc1 (stereo not drawn) [XIV, 4'-chloro-α-[4-(4-ethylphenyl)-4-oxobutyl]-γ-oxo-[1,1'-biphenyl]-4-butanoic acid] | 126 | 29.4 | 89
16 | Cc1ccc(C(=O)CCCC(CC(=O)c2ccc(-c3ccc(Cl)cc3)cc2)C(=O)O)cc1C (stereo not drawn) [XI] | 105 | 48.3 | 104

— patent EP0904260B1, “INHIBITION OF MATRIX METALLOPROTEASES BY 2-(OMEGA-AROYLALKYL)-4-BIARYL-OXOBUTYRIC ACIDS” (Bayer Corporation, priority 1996, dated 1997)
